From patent US7906282B2, “Synthetic nucleic acid molecule compositions and methods of preparation” (Promega Corporation, priority 2000, dated 2011)
Numbering of substitutions follows the chain as printed. Names and notes keep the numbering of the source. Read-outs that look alike come from different tables or passages of the source.

What was measured:
[1] = biological target: T1, synthetic red click beetle luciferase RD (RDver5.2; YG#81-6G01 variant A224H/S247H/N346I/H348Q/R351G), SEQ ID NO: 222 (Pyrophorus plagiophthalamus, UniProt Q718C1); test: Km determination with partially purified enzyme (Table 3), RD; assay type: biochemical
T1 construct: C-terminal tail changed
From the text: (§1) The parent click beetle luciferase YG#81-6G1 (“YG”), and the synthetic click beetle luciferase genes GRver5.1 (“GR”), RDver5.2 (“RD”), and RD156-1H9 were cloned into the four pGL3 reporter vectors (Promega Corp.): • pGL3-Basic=no promoter, no enhancer • pGL3-Control=SV40 promoter, SV40 enhancer • pGL3-Enhancer=SV40 enhancer (3′ to luciferase coding sequences) • pGL3-Promoter=SV40 promoter. The primers employed in the assembly of GR and RD synthetic genes facilitated the cloning of those genes into pRAM vectors. To introduce the genes into pGL3 vectors (Promega Corp., Madison, Wis.) for analysis in mammalian cells, each gene in a pRAM vector (pRAM RDver5.1, pRAM GRver5.1, and pRAM RD156-1H9) was amplified to introduce an Nco I site at the 5′ end and an Xba I site at the 3′ end of the gene. The primers for pRAM RDver5.1 and pRAM GRver5.1 were: […]
(§2) Partially purified enzymes expressed from the synthetic genes and the parent gene were employed to determine Km for luciferin and ATP (see Table 3).

[2] = test system: click beetle luciferase YG#81-6G01 (mutant of wild type LucPplYG, SEQ ID NO: 23), SEQ ID NO: 24; conditions: vs wild type LucPplYG; cited from earlier work
MCF-7 cells = test: TPA induction of Renilla luciferase co-reporter vectors in transfected MCF-7 cells (Table 13); assay type: cell-based; conditions: Homo sapiens, MCF7, 24 h, 0.2 nM TPA, vs untreated
Method: Experimental treatment sometimes may activate cryptic sites within the gene and cause induction or suppression of the co-reporter expression, which would compromise its function as co-reporter for normalization of transfection efficiencies. One example is that TPA induces expression of co-reporter vectors harboring the wild-type gene when transfecting MCF-7 cells. 500 ng pRL-TK (native), 5 μg native and synthetic pRG-B, 2.5 μg native and synthetic pRG-TK were transfected per well of MCF-7 cells. 100 ng/well pGL3-control (firefly luc+) was co-transfected with all RL plasmids. Carrier DNA, pUC19, was used to bring the total DNA transfected to 5.1 μg/well. 15.3 μl TransFast Transfection Reagent (Promega Corp., Madison, Wis.) was added per well. Sixteen hours later, cells were trypsinized, pooled and split into six wells of a 6-well dish and allowed to attach to the well for 8 hours. Three wells were then treated with the 0.2 nM of the tumor promoter, TPA (phorbol-12-myristate-13-acetate, Calbiochem #524400-S), and three wells were mock treated with 20 μl DMSO. Cells were harvested with 0.4 ml Passive Lysis Buffer 24 hours post TPA addition.

[3] = biological target: T2, synthetic red click beetle luciferase RDver5.2 (YG#81-6G01 variant A224H/S247H/N346I/H348Q/R351G), SEQ ID NO: 222 (Pyrophorus plagiophthalamus, UniProt Q718C1); test: Km for luciferin, lysates of bacterial cells (Table 6), RDver5.2; assay type: biochemical; conditions: read-out: Km Luciferin, CCLR lysate diluted 1:10, HEPES pH 7.8
T2 construct: C-terminal tail changed; lysate of bacterial cells
Method: (§3) The Km values for luciferin and the luminescence intensity relative to RDver5.2 were determined for all three clones in several independent experiments. All cells samples were processed with CCLR lysis buffer (E1483, Promega Corp., Madison, Wis.) and diluted 1:10 into buffer (25 mM HEPES pH 7.8, 5% glycerol, 1 mg/ml BSA, 150 mM NaCl). Table 7 summarizes the results (Lum: luminescence values were normalized to optical density; measurements for independent experiments are separated by forward slashes) from expression in bacterial cells. RD156-1H9, the clone with the highest luminescence intensity (5 to 10-fold increase) also has an about 2-fold higher Km for luciferin.

[4] = biological target: T3, click beetle luciferase RDver5.2 variant RD156-0B4 (Pyrophorus plagiophthalamus, UniProt Q718C1, A224Y/A287S/C127T/C60V/F45V, form not given/H348Q/I288V/I91V/K85T/L262F/N249T/N346I/S247H/V325A/V389I/Y183F); test: Km for luciferin, lysates of bacterial cells (Table 6), RD156-0B4; assay type: biochemical; conditions: read-out: Km Luciferin, CCLR lysate diluted 1:10, HEPES pH 7.8
T3 construct: lysate of bacterial cells
Method: (§4) Protocols and procedures used for the directed evolution are detailed in see PCT/WO9914336. DNA from the four clones with lower Km was combined and three libraries of random mutants were produced. The libraries were screened with the robot and clones with the highest LI values were selected. These clones were shuffled together and another robotic screen was completed with an incubation temperature of 46° C. The three clones with the highest LI values were RD156-0B4, RD156-1A5, and RD156-1H9.
as §3

[5] = biological target: T4, click beetle luciferase RDver5.2 variant RD156-1A5 (Pyrophorus plagiophthalamus, UniProt Q718C1, A224Y/A287S/C127T/C60V/F45V, form not given/H348Q/I288V/I91V/K85T/L262F/N249T/N346I/S247H/V325A/V389I/Y183F); test: Km for luciferin, lysates of bacterial cells (Table 6), RD156-1A5; assay type: biochemical; conditions: read-out: Km Luciferin, CCLR lysate diluted 1:10, HEPES pH 7.8
T4 construct: lysate of bacterial cells
Method: as §4, §3

[6] = biological target: T5, click beetle luciferase RDver5.2 variant RD156-1H9 (M2I/S349T/K488T/E538V), SEQ ID NO: 223 (Pyrophorus plagiophthalamus, UniProt Q718C1); assay type: biochemical; conditions: for Km: read-out: Km Luciferin, CCLR lysate diluted 1:10, HEPES pH 7.8
T5 construct: C-terminal tail changed; lysate of bacterial cells
Method: Protocols and procedures used for the directed evolution are detailed in see PCT/WO9914336. […] The libraries were screened with the robot and clones with the highest LI values were selected. These clones were shuffled together and another robotic screen was completed with an incubation temperature of 46° C.
as §3, with “cells.” for “cells. RD156-1H9, the clone with the highest luminescence intensity (5 to 10-fold increase) also has an about 2-fold higher Km for luciferin.”

[7] = substrate: O=C(O)[C@H]1CSC(c2nc3ccc(O)cc3s2)=N1; test: Km determination with partially purified enzyme (Table 3), YG parent; assay type: biochemical, Pyrophorus plagiophthalamus; conditions: other: partially purified enzyme
From the text: as §2

[8] = substrate: Nc1ncnc2c1ncn2[C@@H]1O[C@H](COP(=O)(O)OP(=O)(O)OP(=O)(O)O)[C@@H](O)[C@H]1O; test: as above; assay type: biochemical, Pyrophorus plagiophthalamus; conditions: other: partially purified enzyme
From the text: as §2

[9] = substrate: O=C(O)[C@H]1CSC(c2nc3ccc(O)cc3s2)=N1; test: Km determination with partially purified enzyme (Table 3), GR; assay type: biochemical, Pyrophorus plagiophthalamus; conditions: other: partially purified enzyme
From the text: as §1, §2

[10] = substrate: Nc1ncnc2c1ncn2[C@@H]1O[C@H](COP(=O)(O)OP(=O)(O)OP(=O)(O)O)[C@@H](O)[C@H]1O; test: as above; assay type: biochemical, Pyrophorus plagiophthalamus; conditions: other: partially purified enzyme
From the text: as §1, §2

[11] = substrate: O=C(O)[C@H]1CSC(c2nc3ccc(O)cc3s2)=N1; test: Km for luciferin, lysates of bacterial cells (Table 6), GRver5.1; assay type: biochemical, Pyrophorus plagiophthalamus
Method: as §3

T5 sequence (Q718C1 entry or part of it, stated change not applied): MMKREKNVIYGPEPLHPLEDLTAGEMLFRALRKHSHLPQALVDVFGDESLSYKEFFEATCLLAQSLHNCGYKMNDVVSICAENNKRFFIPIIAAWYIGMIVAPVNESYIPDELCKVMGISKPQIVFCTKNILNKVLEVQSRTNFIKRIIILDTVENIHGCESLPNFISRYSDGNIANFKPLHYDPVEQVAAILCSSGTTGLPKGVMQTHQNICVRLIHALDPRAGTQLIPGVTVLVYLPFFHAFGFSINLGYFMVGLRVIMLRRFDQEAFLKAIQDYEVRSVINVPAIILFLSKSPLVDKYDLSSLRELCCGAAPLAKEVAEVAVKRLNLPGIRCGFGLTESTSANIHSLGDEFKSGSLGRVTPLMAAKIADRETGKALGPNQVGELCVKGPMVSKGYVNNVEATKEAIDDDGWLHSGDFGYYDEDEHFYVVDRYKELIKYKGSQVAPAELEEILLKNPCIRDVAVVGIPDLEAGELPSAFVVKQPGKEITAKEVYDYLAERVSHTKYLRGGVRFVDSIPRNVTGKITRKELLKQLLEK
T2 sequence (Q718C1 entry or part of it, stated change not applied): as above
T1 sequence (Q718C1 entry or part of it, stated change not applied): as above

For Nc1ncnc2c1ncn2[C@@H]1O[C@H](COP(=O)(O)OP(=O)(O)OP(=O)(O)O)[C@@H](O)[C@H]1O [ATP], the Km ([1]; read-out: KM (ATP)) is given as 46 µM and the “KM for ATP compared to the wild type” value [2] is given as “lower”.

In the case of CCCCCCCCCCCCCC(=O)O[C@@H]1[C@@H](C)[C@@]2(O)[C@@H](C=C(CO)C[C@]3(O)C(=O)C(C)=C[C@@H]23)[C@@H]2C(C)(C)[C@]12OC(C)=O [TPA, phorbol-12-myristate-13-acetate], the fold induction (MCF-7 cells; pRG-B (final, synthetic Renilla gene)) is reported as 1.47, the fold induction (MCF-7 cells; pRG-B (native Renilla gene)) is reported as 8 and the fold induction (MCF-7 cells; pRG-tk (final, synthetic Renilla gene)) is reported as 0.88. It also gave a fold induction (MCF-7 cells; pRG-tk (native Renilla gene)) of 4.36 and a fold induction (MCF-7 cells; pRL-tk (native Renilla gene)) of 4.4.

In the case of O=C(O)[C@H]1CSC(c2nc3ccc(O)cc3s2)=N1 [luciferin], the Km ([3]; prep #1, independent experiment 1) is reported as 12 µM, the Km ([3]; prep #1, independent experiment 2) is reported as 14 µM and the Km ([3]; prep #1, independent experiment 3) is reported as 14 µM. The Km ([3]; prep #2, independent experiment 1) was 40 µM, the Km ([3]; prep #2, independent experiment 2) was 50 µM and the Km ([1]; read-out: KM (LH2)) was 24.5 µM. For the same molecule, the Km ([4]; independent experiment 1) was 8 µM, the Km ([4]; independent experiment 2) was 10 µM and the Km ([5]; independent experiment 1) was 13 µM. The Km ([5]; independent experiment 2) was 13 µM, the “KM for luciferin compared to the wild type” value [2] was “lower” and the Km ([6]; independent experiment 1) was 20 µM. The Km ([6]; independent experiment 2) was 23 µM, the Km ([6]; independent experiment 3) was 23 µM and the “luciferin K, fold higher” value ([6]; relative to GRver5.1) was “approximately 40 fold”. The “Km for luciferin, fold higher” value ([6]; relative to RDver5.2) was “about 2 fold”.

B1: click beetle (Pyrophorus plagiophthalamus) luciferase YG#81-6G01 (YG parent, mutant of wild type LucPplYG), SEQ ID NO: 24 (Pyrophorus plagiophthalamus; … (protein)
chain: MMKREKNVIYGPEPLHPLEDLTAGEMLFRALRKHSHLPQALVDVVGDESLSYKEFFEATVLLAQSLHNCGYKMNDVVSICAENNTRFFIPVIAAWYIGMIVAPVNESYIPDELCKVMGISKPQIVFTTKNILNKVLEVQSRTNFIKRIIILDTVENIHGCESLPNFISRYSDGNIANFKPLHFDPVEQVAAILCSSGTTGLPKGVMQTHQNICVRLIHALDPRAGTQLIPGVTVLVYLPFFHAFGFSITLGYFMVGLRVIMFRRFDQEAFLKAIQDYEVRSVINVPSVILFLSKSPLVDKYDLSSLRELCCGAAPLAKEVAEVAAKRLNLPGIRCGFGLTESTSANIHSLRDEFKSGSLGRVTPLMAAKIADRETGKALGPNQVGELCIKGPMVSKGYVNNVEATKEAIDDDGWLHSGDFGYYDEDEHFYVVDRYKELIKYKGSQVAPAELEEILLKNPCIRDVAVVGIPDLEAGELPSAFVVKQPGKEITAKEVYDYLAERVSHTKYLRGGVRFVDSIPRNVTGKITRKELLKQLLEKAGG
notes: wild-type residues 540-543 replaced by 3 other residues
Molecule B1 has a Km [7] of 2 μM μM and a Km [8] of 17 μM μM.

B2: synthetic green click beetle luciferase GR (GRver5.1; YG#81-6G01 variant A224V), SEQ ID NO: 31 (Pyrophorus plagiophthalamus; … (protein)
chain: B1 chain with A224V
notes: C-terminal tail changed
B2 gave a Km [9] of 1.3 μM μM and a Km [10] of 25 μM μM.

B3: synthetic green click beetle luciferase GRver5.1 (YG#81-6G01 variant A224V), SEQ ID NO: 31 (Pyrophorus plagiophthalamus; … (protein)
chain: B1 chain with A224V
notes: C-terminal tail changed; lysate of bacterial cells
With B3 the Km ([11]; other: prep #1, CCLR lysate diluted 1:10, HEPES pH 7.8) was 0.5 µM and the Km ([11]; other: prep #2, CCLR lysate diluted 1:10, HEPES pH 7.8) was 3 µM.
